Among the data in ChEMBL document CHEMBL1821563, “The discovery and synthesis of JNJ 31020028, a small molecule antagonist of the Neuropeptide Y Y₂ receptor” (Bioorg Med Chem Lett, 2011) are inhibition and IC50 values, retold here.

SMILES strings stand for the structures. pIC50: −log10 of the molar value.

Chain of CYP2D6 (P10635 whole entry): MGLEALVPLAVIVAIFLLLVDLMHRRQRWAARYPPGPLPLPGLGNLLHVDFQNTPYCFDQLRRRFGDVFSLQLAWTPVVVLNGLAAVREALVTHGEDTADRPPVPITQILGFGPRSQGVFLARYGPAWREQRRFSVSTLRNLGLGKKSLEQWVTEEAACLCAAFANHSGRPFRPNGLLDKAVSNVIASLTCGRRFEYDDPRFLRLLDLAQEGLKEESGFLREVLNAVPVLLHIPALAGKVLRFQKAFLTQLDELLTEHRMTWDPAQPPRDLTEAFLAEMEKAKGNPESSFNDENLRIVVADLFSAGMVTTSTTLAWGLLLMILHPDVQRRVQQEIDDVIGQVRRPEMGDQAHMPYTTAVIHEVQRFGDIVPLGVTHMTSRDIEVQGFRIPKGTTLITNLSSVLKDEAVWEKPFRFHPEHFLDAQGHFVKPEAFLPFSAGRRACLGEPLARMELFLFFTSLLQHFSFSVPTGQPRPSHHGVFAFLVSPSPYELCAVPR

In one data set the target is CYP2C9 (Homo sapiens, UniProt P11712). The data set is described as follows: Inhibition of CYP2C9 at 10 uM. The class given is ADME.
Chain of CYP2C9 (P11712 whole entry): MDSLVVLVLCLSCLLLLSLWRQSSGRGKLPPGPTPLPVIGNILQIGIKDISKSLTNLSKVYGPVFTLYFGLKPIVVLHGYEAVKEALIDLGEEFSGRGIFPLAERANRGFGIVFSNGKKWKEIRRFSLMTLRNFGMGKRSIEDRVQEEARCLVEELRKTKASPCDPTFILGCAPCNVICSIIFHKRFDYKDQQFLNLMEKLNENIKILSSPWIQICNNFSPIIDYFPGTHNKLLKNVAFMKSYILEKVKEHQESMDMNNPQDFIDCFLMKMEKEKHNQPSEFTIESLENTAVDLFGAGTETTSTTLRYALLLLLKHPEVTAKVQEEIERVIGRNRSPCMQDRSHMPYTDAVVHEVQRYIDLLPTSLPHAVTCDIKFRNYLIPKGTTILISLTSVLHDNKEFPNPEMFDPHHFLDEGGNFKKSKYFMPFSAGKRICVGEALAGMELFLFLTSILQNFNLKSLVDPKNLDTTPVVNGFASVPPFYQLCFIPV
As a reminder, the inhibition is the relative decrease from the control value, in per cent. The low end stands for a response near the control, the high end for a response far below the control. `CCC(CC)C(=O)Nc1ccc(N2CCN(C(C(=O)N(CC)CC)c3ccccc3)CC2)c(C#N)c1` (racemic; 34): the inhibition at 10 µM was greater than 75%.

The target of another data set is T1, Neuropeptide Y receptor type 2 (Homo sapiens, UniProt P49146).
T1 sequence (P49146 whole entry): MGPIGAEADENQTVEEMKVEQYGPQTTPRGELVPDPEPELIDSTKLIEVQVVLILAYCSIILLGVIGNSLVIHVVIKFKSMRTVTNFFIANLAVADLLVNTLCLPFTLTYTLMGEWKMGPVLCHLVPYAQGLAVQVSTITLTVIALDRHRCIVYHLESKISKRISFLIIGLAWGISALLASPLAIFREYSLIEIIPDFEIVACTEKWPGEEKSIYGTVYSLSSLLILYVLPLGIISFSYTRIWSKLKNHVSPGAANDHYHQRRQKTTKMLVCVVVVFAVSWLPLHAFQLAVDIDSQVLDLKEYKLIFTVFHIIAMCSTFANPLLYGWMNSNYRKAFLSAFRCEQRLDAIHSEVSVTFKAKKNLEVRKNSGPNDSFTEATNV
In words: Displacement of [125I]PYY from human NPY Y2 receptor expressed endogenously in KAN-Ts cells by scintillation counting. The class given is cell-based. Background: Loss of bound radioactivity is the signal in a displacement assay; it reports binding, not function.
One may read the pIC50 as the IC50 on a negative log10 scale, so that one unit is a factor of ten. A lower pIC50 goes with a large IC50. Regarding `CCC(CC)C(=O)Nc1ccc(N2CCN(C(C(=O)N(CC)CC)c3ccccc3)CC2)c(C#N)c1` (racemic; 32), the pIC50 was 6.70. Compound `CCNC(=O)C(c1ccccc1)N1CCN(c2ccc(NC(=O)C(CC)CC)cc2F)CC1` (stereo not drawn) gave a negative-log IC50 (pIC50) of 6.43. Same read-out and setting: to `CCOc1ccc(NC(=S)N2CCC(C(O)(c3ccccc3)c3ccccc3)CC2)cc1` belongs 6.70; to `CCC(CC)C(=O)Nc1ccc(N2CCN(C(C(=O)N(CC)CC)c3ccccc3)CC2)c(C#N)c1` (racemic; 34), 7.89. The same measure, in the same setting: with `CCN(CC)C(=O)[C@H](c1ccccc1)N1CCN(c2ccc(NC(=O)c3ccccc3-c3cccnc3)cc2F)CC1` the figure was 7.85; with `CCNC(=O)C(c1ccccc1)N1CCN(c2ccc(NC(=O)c3ccccc3-c3cccnc3)cc2F)CC1` (stereo not drawn), 7.38; with `CCC(CC)C(=O)Nc1ccc(N2CCN(C(C(=O)N(CC)CC)c3ccccc3)CC2)c(F)c1` (racemic), 7.30. Still for that read-out and setting: to `CCN(CC)C(=O)[C@@H](c1ccccc1)N1CCN(c2ccc(NC(=O)c3ccccc3-c3cccnc3)cc2F)CC1` belongs 8.05; to `CCN(CC)C(=O)C(c1ccccc1)N1CCN(c2ccc(NC(=O)c3ccccc3-c3ccccc3)cc2F)CC1` (racemic), 8.00; to `CCNC(=O)C(c1ccccc1)N1CCN(c2ccc(NC(=O)c3ccccc3-c3ccccc3)cc2F)CC1` (stereo not drawn), 7.46. As to `CCN(CC)C(=O)C(c1ccccc1)N1CCN(c2ccc(NC(=O)c3ccccc3-c3cccnc3)cc2F)CC1` (racemic), the pIC50 was 8.22. Still for that read-out and setting: with `COC(=O)C(c1ccccc1)N1CCN(c2ccc(NC(=O)c3ccccc3-c3ccccc3)cc2C#N)CC1` (stereo not drawn) the figure was 7.60; with `CCN(CC)C(=O)C(c1ccccc1)N1CCN(c2ccc(NC(=O)c3ccccc3-c3ccccc3)cc2C#N)CC1` (racemic; 28), 7.43; with `CCNC(=O)C(c1ccccc1)N1CCN(c2ccc(NC(=O)C(CC)CC)cc2C#N)CC1` (stereo not drawn), 6.82. The same measure, in the same setting: with `COC(=O)C(c1ccccc1)N1CCN(c2ccc(NC(=O)c3ccccc3-c3cccnc3)cc2)CC1` (stereo not drawn) the figure was 6.66; with `COC(=O)C(c1ccccc1)N1CCN(c2ccc(NC(=O)c3ccccc3-c3cccnc3)cc2F)CC1` (stereo not drawn), 7.40. The same measure, in the same setting: with `COC(=O)C(c1ccccc1)N1CCN(c2ccc(NC(=O)c3ccccc3-c3ccncc3)cc2)CC1` (stereo not drawn) the figure was 6.62. For the compound `CCC(CC)C(=O)Nc1ccc(N2CCN(C(C(=O)OC)c3ccccc3)CC2)c(F)c1` (stereo not drawn), the negative-log IC50 (pIC50) was 6.78. Still for that read-out and setting: to `COC(=O)C(c1ccccc1)N1CCN(c2ccc(NC(=O)c3ccccc3-c3ccncc3)cc2F)CC1` (stereo not drawn) belongs 7.43. `COC(=O)C(c1ccccc1)N1CCN(c2ccc(NC(=O)c3ccccc3-c3ccccc3)cc2C)CC1` (stereo not drawn) gave a pIC50 of 7.00. This pIC50 lies 0.43 log units lower than the previous one. On the same count and under the same terms, with `CCN(CC)C(=O)C(c1ccccc1)N1CCN(c2ccc(NC(=O)c3ccccc3-c3ccccc3)cc2C#N)CC1` (racemic; 30) the figure was 8.10; with `CCNC(=O)C(c1ccccc1)N1CCN(c2ccc(NC(=O)c3ccccc3-c3cccnc3)cc2C#N)CC1` (stereo not drawn), 7.52.

`CCNC(=O)C(c1ccccc1)N1CCN(c2ccc(NC(=O)c3ccccc3-c3ccccc3)cc2C#N)CC1` (stereo not drawn) gave a pIC50 of 7.96. For `COc1cccnc1C(=O)N1CCN(c2ccc(NC(C)(C)c3ccccc3)cc2Cl)CC1`, the negative logarithm of the IC50 (pIC50) is 7.60.

`COC(=O)C(c1ccccc1)N1CCN(c2ccc(NC(=O)c3ccccc3-c3ccccc3)cc2)CC1` (stereo not drawn) showed a pIC50 of 6.28. `COC(=O)C(c1ccccc1)N1CCN(c2ccc(NC(=O)c3ccccc3-c3ccccc3)cc2F)CC1` (stereo not drawn) gave a pIC50 of 7.28.

The next data set concerns the target CYP2D6 (Homo sapiens, UniProt P10635). The data set is described as follows: Inhibition of CYP2D6 at 10 uM. The class given is ADME.
`CCC(CC)C(=O)Nc1ccc(N2CCN(C(C(=O)N(CC)CC)c3ccccc3)CC2)c(C#N)c1` (racemic; 34) had an inhibition at 10 µM greater than 75%.
